Patent US20240166635A1, “AMINOHETEROARYL KINASE INHIBITORS” (Anrui Biomedical Technology (Guangzhou) Co.,Ltd., priority 2020, published 2024)

Columns and labels:
Format in all cases: biochemical
CDK2/CyclinE1 = CDK2/CyclinE1 (Homo sapiens (Human), UniProt P24941); assay: CDK2/CyclinE1 kinase inhibitory activity (Caliper mobility shift); conditions: read-out: CDK2/Cyclin El IC50
CDK4/Cyclin D1 = CDK4/Cyclin D1 (Homo sapiens (Human), UniProt P11802); assay: CDK4/CyclinD1 kinase inhibitory activity (Caliper mobility shift)
CDK4/Cyclin D1, sequence (P11802 whole entry): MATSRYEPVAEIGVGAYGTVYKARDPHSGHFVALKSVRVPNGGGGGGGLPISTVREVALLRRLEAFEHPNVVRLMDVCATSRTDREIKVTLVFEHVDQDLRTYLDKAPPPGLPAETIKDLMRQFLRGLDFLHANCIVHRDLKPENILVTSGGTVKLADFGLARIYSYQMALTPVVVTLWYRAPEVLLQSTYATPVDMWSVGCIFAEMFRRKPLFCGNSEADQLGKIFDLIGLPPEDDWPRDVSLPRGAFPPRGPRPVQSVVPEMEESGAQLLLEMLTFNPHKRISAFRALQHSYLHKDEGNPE
CDK4/Cyclin D1, sequence (P24385 whole entry partner): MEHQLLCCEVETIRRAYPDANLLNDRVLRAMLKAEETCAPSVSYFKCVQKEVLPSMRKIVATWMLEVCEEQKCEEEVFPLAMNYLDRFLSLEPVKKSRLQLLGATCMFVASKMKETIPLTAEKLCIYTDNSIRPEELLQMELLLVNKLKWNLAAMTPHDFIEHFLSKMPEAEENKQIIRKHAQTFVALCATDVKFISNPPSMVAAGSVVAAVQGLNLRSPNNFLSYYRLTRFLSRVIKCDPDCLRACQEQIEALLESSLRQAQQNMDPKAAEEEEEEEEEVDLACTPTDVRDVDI

CDK6/CyclinD1 = CDK6/CyclinD1 (Homo sapiens (Human), UniProt Q00534); assay: CDK6/CyclinD1 kinase inhibitory activity (Caliper mobility shift); conditions: read-out: CDK6/Cyclin D1 IC50
CDK6/CyclinD1, sequence (Q00534 whole entry): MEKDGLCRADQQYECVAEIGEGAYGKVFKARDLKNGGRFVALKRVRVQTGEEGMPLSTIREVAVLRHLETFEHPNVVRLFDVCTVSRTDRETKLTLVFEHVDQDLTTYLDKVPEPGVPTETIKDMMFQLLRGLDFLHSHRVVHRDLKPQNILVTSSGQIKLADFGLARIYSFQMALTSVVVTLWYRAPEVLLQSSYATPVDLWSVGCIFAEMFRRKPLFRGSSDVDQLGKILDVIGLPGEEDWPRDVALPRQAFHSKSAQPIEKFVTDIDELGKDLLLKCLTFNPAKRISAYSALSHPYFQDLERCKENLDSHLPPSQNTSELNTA
CDK6/CyclinD1, sequence (P24385 whole entry partner): as the sequence (P24385 whole entry partner) above

CDK7/CyclinH/MAT1 = CDK7/CyclinH/MAT1 (Homo sapiens (Human), UniProt P50613); assay: CDK7/CyclinH/MAT1 kinase inhibitory activity (Caliper mobility shift)
CDK7/CyclinH/MAT1, sequence (P50613 whole entry): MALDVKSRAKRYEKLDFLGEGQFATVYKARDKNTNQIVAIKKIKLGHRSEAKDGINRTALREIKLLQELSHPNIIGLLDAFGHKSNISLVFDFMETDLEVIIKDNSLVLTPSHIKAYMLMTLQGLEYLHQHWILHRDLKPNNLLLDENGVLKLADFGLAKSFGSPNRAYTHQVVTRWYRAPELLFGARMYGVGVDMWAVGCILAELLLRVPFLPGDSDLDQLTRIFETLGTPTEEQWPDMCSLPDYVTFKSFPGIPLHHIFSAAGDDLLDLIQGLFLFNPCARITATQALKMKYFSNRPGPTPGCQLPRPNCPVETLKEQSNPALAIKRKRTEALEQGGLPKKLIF
CDK7/CyclinH/MAT1, sequence (P51946 whole entry partner): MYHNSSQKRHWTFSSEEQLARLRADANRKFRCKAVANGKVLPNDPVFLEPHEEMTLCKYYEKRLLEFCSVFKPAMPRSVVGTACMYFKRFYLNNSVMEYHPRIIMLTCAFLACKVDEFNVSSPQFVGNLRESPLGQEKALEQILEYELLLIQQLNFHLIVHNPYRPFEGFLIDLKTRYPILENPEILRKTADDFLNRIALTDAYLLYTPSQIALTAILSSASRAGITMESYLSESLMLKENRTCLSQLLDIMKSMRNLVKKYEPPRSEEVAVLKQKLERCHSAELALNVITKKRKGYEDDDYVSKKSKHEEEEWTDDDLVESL
CDK7/CyclinH/MAT1, sequence (P51948 whole entry partner): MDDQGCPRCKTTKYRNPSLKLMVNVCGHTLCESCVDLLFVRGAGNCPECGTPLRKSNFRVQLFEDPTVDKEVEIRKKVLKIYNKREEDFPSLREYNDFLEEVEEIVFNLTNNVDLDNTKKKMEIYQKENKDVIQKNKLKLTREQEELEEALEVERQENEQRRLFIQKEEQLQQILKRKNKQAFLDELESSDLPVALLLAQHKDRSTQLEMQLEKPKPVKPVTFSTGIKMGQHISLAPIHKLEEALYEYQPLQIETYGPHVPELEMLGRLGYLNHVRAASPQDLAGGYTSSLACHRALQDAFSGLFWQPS

CDK1/CyclinB = CDK1/CyclinB (Homo sapiens (Human), UniProt P06493); assay: CDK1/CyclinB kinase inhibitory activity (Caliper mobility shift); conditions: read-out: CDK1/Cyclin B1 IC50
CDK1/CyclinB, sequence (P06493 whole entry): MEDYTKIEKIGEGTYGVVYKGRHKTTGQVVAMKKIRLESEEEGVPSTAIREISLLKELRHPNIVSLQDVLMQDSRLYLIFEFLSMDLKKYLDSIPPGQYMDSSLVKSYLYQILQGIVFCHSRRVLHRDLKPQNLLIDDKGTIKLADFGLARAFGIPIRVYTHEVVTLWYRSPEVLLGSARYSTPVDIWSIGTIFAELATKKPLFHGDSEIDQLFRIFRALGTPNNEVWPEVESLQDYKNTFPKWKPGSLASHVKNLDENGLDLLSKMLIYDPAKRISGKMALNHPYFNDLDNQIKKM
CDK1/CyclinB, sequence (P14635 whole entry partner): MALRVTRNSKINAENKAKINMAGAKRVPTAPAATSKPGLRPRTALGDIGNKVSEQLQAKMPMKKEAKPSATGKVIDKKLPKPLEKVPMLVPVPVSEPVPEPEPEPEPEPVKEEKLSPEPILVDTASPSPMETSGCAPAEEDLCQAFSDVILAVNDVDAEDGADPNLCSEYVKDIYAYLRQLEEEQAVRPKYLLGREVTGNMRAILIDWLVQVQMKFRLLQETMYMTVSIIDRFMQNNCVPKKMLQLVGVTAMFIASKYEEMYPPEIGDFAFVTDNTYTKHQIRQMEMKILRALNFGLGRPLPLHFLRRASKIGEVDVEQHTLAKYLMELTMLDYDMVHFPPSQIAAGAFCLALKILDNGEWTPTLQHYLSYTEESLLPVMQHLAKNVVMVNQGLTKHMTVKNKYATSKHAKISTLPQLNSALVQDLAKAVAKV

| Compound | IC50 (CDK2/CyclinE1) | IC50 (CDK4/Cyclin D1) | IC50 (CDK6/CyclinD1) | IC50 (CDK7/CyclinH/MAT1) | IC50 (CDK1/CyclinB) |
| --- | --- | --- | --- | --- | --- |
| CO[C@H]1C[C@](C)(COc2nc(NC3CCN(S(=O)(=O)c4cnn(C)c4)CC3)ncc2C#N)C1 [Example 64a] | < 10 nM | 10 to 100 nM | 10 to 100 nM | 100 to 1000 nM | – |
| Cn1cc(S(=O)(=O)N2CCC(Nc3ncc(C#N)c(O[C@@H]4CCC(F)(F)C[C@]4(C)O)n3)CC2)cn1 (relative stereo) [Example 7b, cis-4-((4,4-difluoro-2-hydroxy-2-methylcyclohexyl)oxy)-2-((1-((1-methyl-1H-pyrazol-4-yl)sulfonyl)piperidin-4-yl)amino)pyrimidine-5-carbonitrile] | 10 to 100 nM | 100 to 1000 nM | 100 to 1000 nM | ≥ 1000 nM | – |
| CNc1cccc(-c2nc(Nc3ccc(S(N)(=O)=O)cc3)ncc2C#N)c1 [Example 97] | 10 to 100 nM | 100 to 1000 nM | ≥ 1000 nM | ≥ 1000 nM | 100 to 1000 nM |
| CC1(O)CCCC1Oc1nc(NC2CCN(S(=O)(=O)CC(F)(F)F)CC2)ncc1C#N (single isomer, unassigned) [Example 43b] | 10 to 100 nM | 10 to 100 nM | 10 to 100 nM | ≥ 1000 nM | – |
| CC1(O)CCCC1Oc1nc(NC2CCN(S(=O)(=O)C(F)(F)F)CC2)ncc1C#N (single isomer, unassigned) [Example 42b] | 10 to 100 nM | 100 to 1000 nM | 100 to 1000 nM | ≥ 1000 nM | – |
| CC1(O)CCCC1Oc1nc(NC2CCN(S(=O)(=O)C(F)(F)F)CC2)ncc1C#N (single isomer, unassigned) [Example 42a] | < 10 nM | 10 to 100 nM | 10 to 100 nM | 100 to 1000 nM | – |
| N#Cc1cnc(Nc2ccc(S(N)(=O)=O)cc2)nc1-c1cccc(F)c1 [Example 95] | 10 to 100 nM | 100 to 1000 nM | ≥ 1000 nM | ≥ 1000 nM | 10 to 100 nM |

Second part, the compound after the results:

| IC50 (CDK2/CyclinE1) | IC50 (CDK4/Cyclin D1) | IC50 (CDK6/CyclinD1) | IC50 (CDK7/CyclinH/MAT1) | IC50 (CDK1/CyclinB) | Compound |
| --- | --- | --- | --- | --- | --- |
| < 10 nM | 10 to 100 nM | 10 to 100 nM | 100 to 1000 nM | – | Cn1cnc(S(=O)(=O)N2CCC(Nc3ncc(C#N)c(OC4CCCC4(C)O)n3)CC2)n1 (single isomer, unassigned) [Example 51a] |
| 10 to 100 nM | 10 to 100 nM | 10 to 100 nM | ≥ 1000 nM | – | CC1(O)CCCC1Oc1nc(NC2CCN(S(=O)(=O)CC3CCOC3)CC2)ncc1C#N (single isomer, unassigned) [Example 40b] |
| < 10 nM | 10 to 100 nM | 10 to 100 nM | ≥ 1000 nM | – | Cn1cnc(S(=O)(=O)N2CCC(Nc3ncc(C#N)c(OC4CCCC4(C)O)n3)CC2)c1 (single isomer, unassigned) [Example 50b] |
| 10 to 100 nM | 100 to 1000 nM | 100 to 1000 nM | ≥ 1000 nM | – | Cn1cnc(S(=O)(=O)N2CCC(Nc3ncc(C#N)c(OC4CCCC4(C)O)n3)CC2)n1 (single isomer, unassigned) [Example 51b] |
| 10 to 100 nM | 100 to 1000 nM | 100 to 1000 nM | 100 to 1000 nM | – | Cn1cc(S(=O)(=O)N2CCC(Nc3ncc(C(F)(F)F)c(OC4CCOCC4(C)O)n3)CC2)cn1 (single isomer, unassigned) [Example 125b] |
| < 10 nM | ≥ 1000 nM | ≥ 1000 nM | ≥ 1000 nM | 100 to 1000 nM | [2H]C([2H])([2H])NS(=O)(=O)c1ccc(Nc2ncc(C(F)(F)F)c(OC3CCOCCC3O)n2)cc1 (single isomer, unassigned) [Example 102a, 4-((4-((5-hydroxyoxepan-4-yl)oxy)-5-(trifluoromethyl)pyrimidin-2-yl)amino)-N-(methyl-d3)benzenesulfonamide] |
